Reference: patent US11000033B2, “Ketone or oxime compound, and herbicide” (NISSAN CHEMICAL CORPORATION, priority 2014, dated 2021)

Assays:
Assay type in all cases: in vivo
corn = assay: Test Example 5: effect on crop by foliage application, plastic box (symbol c); settings: 320 g/ha, 3 weeks after application
How it was run: (§1)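 Diluvial soil, sterilized and boxed (21 × 13 × 7 cm), received spot-sown seed covered by about 1.5 cm soil; plants were then greenhouse-grown at 25–30° C.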

Amaranthus retroflexus = assay: Test Example 5: herbicidal effect by foliage application, plastic box (symbol N); settings: 320 g/ha, 3 weeks after application
How it was run: (§2)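 Greenhouse foliar test: seedlings at 14 days, grown 25° C. to 30° C. in sterilized diluvial soil; compound applied as an aqueous dilution of an emulsion; response read 3 weeks after spraying.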

Monochoria vaginalis [1] = assay: Test Example 2: herbicidal activity, application during weed generation in submerged conditions (symbol C); settings: Table 23; application herbicide amount 320 g/ha; grade 0-5 by criteria of Test Example 1
How it was run: (§3)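 Flooded-soil post-emergence test: emulsion of compound, water-diluted to target rate, applied to paddy water surface at 1–2 leaf stage of mixed-sown weeds (alluvial soil, 4 cm water, 25–30° C. greenhouse); visual rating 3 weeks after application.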

transplanted rice plant = assay: Test Example 1: effect on crop, application before weed generation in submerged conditions (symbol a); settings: application herbicide amount 320 g/ha
How it was run: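 Rice at 2.5 leaf stage transplanted into submerged soil (4 cm depth) sown with three weed species; herbicide applied before weed emergence.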

Scirpus juncoides [2] = assay: Test Example 1: herbicidal activity, application before weed generation in submerged conditions (symbol B); settings: application herbicide amount 320 g/ha
How it was run: (§4)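 Mixed weed seeds sown in alluvial soil under 4 cm of water, with rice seedlings at the 2.5-leaf stage added. Same-day treatment: emulsion diluted to a set herbicide amount onto the water. Three weeks at 25–30 °C, then graded on a six-step scale.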

[3] = system: directly sowed rice plant; assay: Test Example 3: effect on crop by foliage application, Wagner pot (symbol b); settings: application herbicide amount 320 g/ha
How it was run: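 Alluvial soil in a 1/10000-are Wagner pot was flooded to a water depth of 0.1–0.5 cm. Echinochloa crus-galli var. crus-galli, Leptochloa chinensis, Cyperus difformis and rice were sown into it and grown in a greenhouse at 25–30 °C.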

[4] = system: Echinochloa oryzacola Vasing.; assay: Test Example 1: herbicidal activity, application before weed generation in submerged conditions (symbol A); settings: application herbicide amount 320 g/ha
How it was run: as §4

rapeseed = assay: Test Example 5: effect on crop by foliage application, plastic box (symbol g); settings: 320 g/ha, 3 weeks after application
How it was run: as §1

Abutilon theophrasti = assay: Test Example 5: herbicidal effect by foliage application, plastic box (symbol M); settings: 320 g/ha, 3 weeks after application
How it was run: as §2

rice plant = assay: Test Example 5: effect on crop by foliage application, plastic box (symbol b); settings: 320 g/ha, 3 weeks after application
How it was run: as §1

soybean = assay: Test Example 5: effect on crop by foliage application, plastic box (symbol d); settings: 320 g/ha, 3 weeks after application
How it was run: as §1

Alopecurus myosuroides = assay: Test Example 5: herbicidal effect by foliage application, plastic box (symbol J); settings: 320 g/ha, 3 weeks after application
How it was run: as §2

Lolium multiflorum Lam. = assay: Test Example 5: herbicidal effect by foliage application, plastic box (symbol K); settings: 320 g/ha, 3 weeks after application
How it was run: as §2

[5] = system: Echinochloa oryzacola Vasing.; assay: Test Example 2: herbicidal activity, application during weed generation in submerged conditions (symbol A); settings: Table 23; application herbicide amount 320 g/ha; grade 0-5 by criteria of Test Example 1
How it was run: as §3

Digitaria ciliaris = assay: Test Example 5: herbicidal effect by foliage application, plastic box (symbol F); settings: 320 g/ha, 3 weeks after application
How it was run: as §2

Cyperus difformis = assay: Test Example 3: herbicidal effect by foliage application, Wagner pot (symbol E); settings: application herbicide amount 320 g/ha
How it was run: (§5)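 Rating at 3 weeks post-spray, by defined criteria. Treatment: emulsion diluted with water to a predetermined amount, applied evenly to foliage of 14-day-old plants raised in alluvial soil flooded 0.1–0.5 cm deep at 25–30 °C, rice co-sown.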

Avena fatua = assay: Test Example 5: herbicidal effect by foliage application, plastic box (symbol I); settings: 320 g/ha, 3 weeks after application
How it was run: as §2

Veronica persica = assay: Test Example 5: herbicidal effect by foliage application, plastic box (symbol R); settings: 320 g/ha, 3 weeks after application
How it was run: as §2

Setaria viridis = assay: Test Example 5: herbicidal effect by foliage application, plastic box (symbol G); settings: 320 g/ha, 3 weeks after application
How it was run: as §2

Monochoria vaginalis [6] = assay: Test Example 1: herbicidal activity, application before weed generation in submerged conditions (symbol C); settings: application herbicide amount 320 g/ha
How it was run: as §4

[7] = system: Echinochloa crus-galli var. crus-galli; assay: Test Example 5: herbicidal effect by foliage application, plastic box (symbol H); settings: 320 g/ha, 3 weeks after application
How it was run: as §2

Chenopodium album = assay: Test Example 5: herbicidal effect by foliage application, plastic box (symbol O); settings: 320 g/ha, 3 weeks after application
How it was run: as §2

Galium spurium = assay: Test Example 5: herbicidal effect by foliage application, plastic box (symbol Q); settings: 320 g/ha, 3 weeks after application
How it was run: as §2

[8] = system: Echinochloa crus-galli var. crus-galli; assay: Test Example 3: herbicidal effect by foliage application, Wagner pot (symbol H); settings: application herbicide amount 320 g/ha
How it was run: as §5

Stellaria media = assay: Test Example 5: herbicidal effect by foliage application, plastic box (symbol P); settings: 320 g/ha, 3 weeks after application
How it was run: as §2

wheat = assay: Test Example 5: effect on crop by foliage application, plastic box (symbol e); settings: 320 g/ha, 3 weeks after application
How it was run: as §1

Leptochloa chinensis = assay: Test Example 3: herbicidal effect by foliage application, Wagner pot (symbol D); settings: application herbicide amount 320 g/ha
How it was run: as §5

beet = assay: Test Example 5: effect on crop by foliage application, plastic box (symbol f); settings: 320 g/ha, 3 weeks after application
How it was run: as §1

Scirpus juncoides [9] = assay: Test Example 2: herbicidal activity, application during weed generation in submerged conditions (symbol B); settings: Table 23; application herbicide amount 320 g/ha; grade 0-5 by criteria of Test Example 1
How it was run: as §3

Apera spica-venti = assay: Test Example 5: herbicidal effect by foliage application, plastic box (symbol L); settings: 320 g/ha, 3 weeks after application
How it was run: as §2

SMILES | c: corn, effect on crop (criteria of Test Example 1) (corn) | N: Amaranthus retroflexus, herbicidal effect (criteria of Test Example 1) (Amaranthus retroflexus) | Herbicidal effect grade, C: Monochoria vaginalis (Monochoria vaginalis [1]) | Effect grade on crop, a: transplanted rice plant (transplanted rice plant) | Herbicidal effect grade, B: Scirpus juncoides (Scirpus juncoides [2]) | effect on crop b (directly sowed rice plant), grade 0-5 [3] | Herbicidal effect grade, A: Echinochloa oryzacola Vasing. [4] | g: rapeseed, effect on crop (criteria of Test Example 1) (rapeseed) | M: Abutilon theophrasti, herbicidal effect (criteria of Test Example 1) (Abutilon theophrasti) | b: directly sowed rice plant, effect on crop (criteria of Test Example 1) (rice plant) | d: soybean, effect on crop (criteria of Test Example 1) (soybean) | J: Alopecurus myosuroides, herbicidal effect (criteria of Test Example 1) (Alopecurus myosuroides) | K: Lolium multiflorum Lam., herbicidal effect (criteria of Test Example 1) (Lolium multiflorum Lam.) | Herbicidal effect grade, A: Echinochloa oryzacola Vasing. [5] | F: Digitaria ciliaris, herbicidal effect (criteria of Test Example 1) (Digitaria ciliaris) | herbicidal effect on E, grade 0-5 (Cyperus difformis) | I: Avena fatua, herbicidal effect (criteria of Test Example 1) (Avena fatua) | R: Veronica persica, herbicidal effect (criteria of Test Example 1) (Veronica persica) | G: Setaria viridis, herbicidal effect (criteria of Test Example 1) (Setaria viridis) | Herbicidal effect grade, C: Monochoria vaginalis (Monochoria vaginalis [6]) | also measured
CCCC=Cc1cc(C)c(C2=C(O)CC(CC(C)=NOC)C2=O)c(C)c1 (stereo not drawn) [6-071] | 0 (Herbicidal ratio of 5% or lower (almost no effect)) | 0 (Herbicidal ratio of 5% or lower (almost no effect)) | 0 (Herbicidal ratio of 5% or lower (almost no effect)) | 0 (Herbicidal ratio of 5% or lower (almost no effect)) | 0 (Herbicidal ratio of 5% or lower (almost no effect)) | 1 (Herbicidal ratio of 5% or higher and lower than 20%) | 4 (Herbicidal ratio of 70% or higher and lower than 90%) | 0 (Herbicidal ratio of 5% or lower (almost no effect)) | 0 (Herbicidal ratio of 5% or lower (almost no effect)) | 1 (Herbicidal ratio of 5% or higher and lower than 20%) | 0 (Herbicidal ratio of 5% or lower (almost no effect)) | 3 (Herbicidal ratio of 40% or higher and lower than 70%) | 4 (Herbicidal ratio of 70% or higher and lower than 90%) | 2 (Herbicidal ratio of 20% or higher and lower than 40%) | 0 (Herbicidal ratio of 5% or lower (almost no effect)) | 0 (Herbicidal ratio of 5% or lower (almost no effect)) | 0 (Herbicidal ratio of 5% or lower (almost no effect)) | 0 (Herbicidal ratio of 5% or lower (almost no effect)) | 0 (Herbicidal ratio of 5% or lower (almost no effect)) | 0 (Herbicidal ratio of 5% or lower (almost no effect)) | H: Echinochloa crus-galli var. crus-galli, herbicidal effect (criteria of Test Example 1) [7]: 0 (Herbicidal ratio of 5% or lower (almost no effect)); O: Chenopodium album, herbicidal effect (criteria of Test Example 1) (Chenopodium album): 0 (Herbicidal ratio of 5% or lower (almost no effect)); Q: Galium spurium, herbicidal effect (criteria of Test Example 1) (Galium spurium): 0 (Herbicidal ratio of 5% or lower (almost no effect)); herbicidal effect on H (Echinochloa crus-galli var. crus-galli), grade 0-5 [8]: 4 (Herbicidal ratio of 70% or higher and lower than 90%); P: Stellaria media, herbicidal effect (criteria of Test Example 1) (Stellaria media): 0 (Herbicidal ratio of 5% or lower (almost no effect)); e: wheat, effect on crop (criteria of Test Example 1) (wheat): 2 (Herbicidal ratio of 20% or higher and lower than 40%); herbicidal effect on D (Leptochloa chinensis), grade 0-5 (Leptochloa chinensis): 5 (Herbicidal ratio of 90% or more (almost completely withered)); f: beet, effect on crop (criteria of Test Example 1) (beet): 0 (Herbicidal ratio of 5% or lower (almost no effect)); Herbicidal effect grade, B: Scirpus juncoides (Scirpus juncoides [9]): 0 (Herbicidal ratio of 5% or lower (almost no effect)); L: Apera spica-venti, herbicidal effect (criteria of Test Example 1) (Apera spica-venti): 2 (Herbicidal ratio of 20% or higher and lower than 40%)
CON=C(C)CC1CC(O)=C(c2c(C)cc(C=Cc3ccccc3)cc2C)C1=O (stereo not drawn) [6-072] | 3 (Herbicidal ratio of 40% or higher and lower than 70%) | 0 (Herbicidal ratio of 5% or lower (almost no effect)) | 0 (Herbicidal ratio of 5% or lower (almost no effect)) | 0 (Herbicidal ratio of 5% or lower (almost no effect)) | 0 (Herbicidal ratio of 5% or lower (almost no effect)) | 0 (Herbicidal ratio of 5% or lower (almost no effect)) | 4 (Herbicidal ratio of 70% or higher and lower than 90%) | 0 (Herbicidal ratio of 5% or lower (almost no effect)) | 0 (Herbicidal ratio of 5% or lower (almost no effect)) | 2 (Herbicidal ratio of 20% or higher and lower than 40%) | 0 (Herbicidal ratio of 5% or lower (almost no effect)) | 0 (Herbicidal ratio of 5% or lower (almost no effect)) | 2 (Herbicidal ratio of 20% or higher and lower than 40%) | 1 (Herbicidal ratio of 5% or higher and lower than 20%) | 0 (Herbicidal ratio of 5% or lower (almost no effect)) | 0 (Herbicidal ratio of 5% or lower (almost no effect)) | 3 (Herbicidal ratio of 40% or higher and lower than 70%) | 0 (Herbicidal ratio of 5% or lower (almost no effect)) | 4 (Herbicidal ratio of 70% or higher and lower than 90%) | 0 (Herbicidal ratio of 5% or lower (almost no effect)) | H: Echinochloa crus-galli var. crus-galli, herbicidal effect (criteria of Test Example 1) [7]: 1 (Herbicidal ratio of 5% or higher and lower than 20%); O: Chenopodium album, herbicidal effect (criteria of Test Example 1) (Chenopodium album): 0 (Herbicidal ratio of 5% or lower (almost no effect)); Q: Galium spurium, herbicidal effect (criteria of Test Example 1) (Galium spurium): 0 (Herbicidal ratio of 5% or lower (almost no effect)); herbicidal effect on H (Echinochloa crus-galli var. crus-galli), grade 0-5 [8]: 5 (Herbicidal ratio of 90% or more (almost completely withered)); P: Stellaria media, herbicidal effect (criteria of Test Example 1) (Stellaria media): 0 (Herbicidal ratio of 5% or lower (almost no effect)); e: wheat, effect on crop (criteria of Test Example 1) (wheat): 0 (Herbicidal ratio of 5% or lower (almost no effect)); herbicidal effect on D (Leptochloa chinensis), grade 0-5 (Leptochloa chinensis): 5 (Herbicidal ratio of 90% or more (almost completely withered)); f: beet, effect on crop (criteria of Test Example 1) (beet): 0 (Herbicidal ratio of 5% or lower (almost no effect)); Herbicidal effect grade, B: Scirpus juncoides (Scirpus juncoides [9]): 0 (Herbicidal ratio of 5% or lower (almost no effect)); L: Apera spica-venti, herbicidal effect (criteria of Test Example 1) (Apera spica-venti): 0 (Herbicidal ratio of 5% or lower (almost no effect))
